Laboratory results from patent US4659712A, “Fodder additive and a process for the preparation” (Richter Gedeon Vegyeszeti Gyar Rt., priority 1984, dated 1987).
Where “and” joins values, the source holds several entries; their conditions need not be identical. Equal entries are not always repeated. Entries after “also recorded” stand apart in the source; their conditions may differ.

Assays:
[1] = Organoleptic examination (boiling test) of muscle and liver tissues of pigs treated with Carbadox and flumecinol; format: in vivo; design: key to visual observation / organoleptic (odor) score: 1: negative; 2: slight strange (indeterminable) odor; 3: some strange (slight medicamentlike) odor; 4: definite strange (more expressed medicament) odor; conditions: for visual observation / organoleptic (odor) score: individual animal
Method: (§1) Tests were carried out at a large-scale pig farm, where 25 mg/kg of body weight of Carbadox admixed with the fodder of the pigs were administered to pigs having a live weight of 40 kg. From a population fed with this fodder 27 animals, each weighing exactly 40 kg, were selected, by weighing them separately. The selected animals were railed off in a place suitable for further tests. From this time on (zero time) the animals were given the same fodder as before, except Carbadox.
(§2) The 27 animals were divided into three groups as follows:
(§3) Group I: 12 animals (ser. Nos. from 1 to 12) slaughtering: three animals each when starting the experiment (0 time) and on the 1st, 5th and 15th days (positive control group) Group II: 9 amimals (ser. Nos. from 13 to 21) treatment: a single 40 mg/kg of body weight dose of flumecinol at zero time. slaughtering: three animals each on the 1st, 5th and 15th days (group treated with a single dose of flumecinol) Group III: 6 animals (ser. Nos. 22 to 27) treatment: 40 mg/kg of body weight of flumecinol for three days, at zero time and on the 1st and 2nd day slaughtering: three animals each on the 5th and 15th days (group treated with flumecinol three times) Flumecinol is available as a micropellet containing 19.02% of active ingredient. From this and a 1% starch hydrolysate a suspension is prepared, containing 40 mg of flumecinol per 1 ml (dose used for one kg of body weight). The active compound was administered 8 o'clock in the morning, without previous fasting, through a stomach tube, in order to ensure exact conditions for the experiments. The animals were killed and samples were taken from 8 to 11 o'clock in the morning, whereupon the samples were transported into the analytical laboratory within one hour, under cooling.
(§4) Quinoxaline-2-carboxylic acid (a metabolite of Carbadox) was determined in the chop, liver and kidney tissues of three animals from each group. Each muscle and liver sample was subjected to organoleptic examination also (boiling test).

[2] = system: polysubstrate monooxygenase enzyme system of the liver; test: Induction of the polysubstrate monooxygenase enzyme system of the liver
[3] = Quinoxaline-2-carboxylic acid (Carbadox metabolite) residue in pig muscle (ham, chop), liver and kidney after flumecinol treatment; format: in vivo, pigs; design: key to amount of quinoxaline-2-carboxylic acid / quinoxaline-2-carboxylic acid content of the muscle tissue / quinoxaline-2-carboxylic acid content of the liver / quinoxaline-2-carboxylic acid content of the kidney: .0.: no detectable amount; conditions: for quinoxaline-2-carboxylic acid content of the kidney / quinoxaline-2-carboxylic acid content of the liver / quinoxaline-2-carboxylic acid content of the muscle tissue: average, n = 3; for amount of quinoxaline-2-carboxylic acid: individual animal
Method: as §1, §2, §3, §4
The quantity of quinoxaline-2-carboxylic acid was determined essentially following the method described in the USDA Chemistry Laboratory Guidebook (5007 Determination of Carbadox):
Following the alkaline hydrolysis of the muscle, liver and kidney samples, the hydrolysates were strongly acidified and the quinoxaline-2-carboxylic acid was extracted with ethyl acetate. The pH of the ethyl acetate extract was adjusted to 6 with a citric acid buffer, whereupon the mixture was extracted with benzene. In the next step the acid was esterified with a mixture of n-propanol and sulfuric acid, to yield propyl quinoxaline-2-carboxylate. The quantity of the latter compound was determined (after purification by thin layer chromatography) by gas chromatography. This cumbersome test procedure was always performed together with a […] control sample to which a known amount (0.2 μg-1.0 μg) of quinoxaline-2-carboxylic acid (standard) was added. The percentage of the active ingredient recovered from this sample was taken into account when calculating the residual active substance amount. In this way the error of the process was eliminated.
The test results, if not otherwise indicated, are given in μg/kg.
The quantity of quinoxaline-2-carboxylic acid in the above-specified slaughtering times is shownn in Table 1. The tests were carried out on three animals and Table 1 contains the results obtained on the individual animals. The results were also statistically evaluated for the various sorts of tissues, although in this specific case this was not really necessary, since according to the valid prescriptions the products of animal origin should not contain Carbadox at all, i.e. the limit is zero. Therefore, we considered it more important to determine when the animal tissues become entirely Carbadox-free, than to observe the differences among the tissues of the various groups of animals in the time when they were killed.

[4] = one treatment 40 mg/kg, 1st day, chop
[5] = one treatment 40 mg/kg, 1st day, ham
[6] = one treatment 40 mg/kg, 1st day, liver
[7] = one treatment 40 mg/kg, 5th day, chop
[8] = one treatment 40 mg/kg, 5th day, ham
[9] = one treatment 40 mg/kg, 5th day, liver
[10] = one treatment 40 mg/kg, 15th day, chop
[11] = one treatment 40 mg/kg, 15th day, ham
[12] = one treatment 40 mg/kg, 15th day, liver
[13] = three treatments 40 mg/kg, 5th day, chop
[14] = three treatments 40 mg/kg, 5th day, ham
[15] = three treatments 40 mg/kg, 5th day, liver
[16] = three treatments 40 mg/kg, 15th day, chop
[17] = three treatments 40 mg/kg, 15th day, ham
[18] = three treatments 40 mg/kg, 15th day, liver
[19] = one treatment 40 mg/kg, 1st day
[20] = one treatment 40 mg/kg, 5th day
[21] = one treatment 40 mg/kg, 15th day
[22] = three treatments 40 mg/kg, 5th day
[23] = three treatments 40 mg/kg, 15th day

Structure (SMILES): CCC(O)(c1ccccc1)c1cccc(C(F)(F)F)c1 (centres unmarked) [flumecinol, 1-(3-trifluoromethylphenyl)-1-(phenyl)-propan-1-ol]
- unpleasant odor released in the tissues by Carbadox administration ([1]; flumecinol treatment): eliminates the unpleasant odor
- visual observation / organoleptic (odor) score [1, 4]: 1
- visual observation / organoleptic (odor) score [1, 5]: 1
- visual observation / organoleptic (odor) score [1, 6]: 3
- visual observation / organoleptic (odor) score [1, 7]: 1
- visual observation / organoleptic (odor) score [1, 8]: 1
- visual observation / organoleptic (odor) score [1, 9]: 2
- visual observation / organoleptic (odor) score [1, 10]: 1
- visual observation / organoleptic (odor) score [1, 11]: 1
- visual observation / organoleptic (odor) score [1, 12]: 1
- elimination of flumecinol from the tissue of pigs ([1]; pigs): rapidly eliminated from the tissue of pigs
- undesired effects detected organoleptically ([1]; pigs): no undesired effects which could be detected organoleptically
- visual observation / organoleptic (odor) score [1, 13]: 1
- visual observation / organoleptic (odor) score [1, 14]: 1
- visual observation / organoleptic (odor) score [1, 15]: 1
- visual observation / organoleptic (odor) score [1, 16]: 1
- visual observation / organoleptic (odor) score [1, 17]: 1
- visual observation / organoleptic (odor) score [1, 18]: 1
- induction of the polysubstrate monooxygenase enzyme system [2]: specific inductor of the polysubstrate monooxygenase enzyme system
- residue in muscle tissues and kidney ([3]; 40 mg/kg daily for three subsequent days, 5th day): free of residue on the 5th day
- residue in kidney (so in the source) ([3]; 40 mg/kg daily for three subsequent days, 15th day): free of residue on the 15th day
- residual quinoxaline-2-carboxylic acid in muscle ([3]; 5th day after termination of Carbadox, one or three treatments): no residual quinoxaline-2-carboxylic acid could be detected
- residual Carbadox in muscle vs. control ([3]; Group II, one dose, 24 hours after treatment): significantly lower than in the control animals slaughtered at the same time
- residue in the kidney ([3]; addition in three subsequent days, kidney, 5th and 15th day): no residue was detected either on the 5th or on the 15th day
- quinoxaline-2-carboxylic acid elimination from the muscle tissue ([3]; flumecinol treatment, muscle): significant acceleration of quinoxaline-2-carboxylic acid elimination from the muscle tissue
- quinoxaline-2-carboxylic acid content of the kidney [3, 19]: 30.67 µg/kg
- quinoxaline-2-carboxylic acid content of the liver [3, 19]: 64.67 µg/kg
- quinoxaline-2-carboxylic acid content of the muscle tissue [3, 4]: 5.33 µg/kg
- quinoxaline-2-carboxylic acid content of the muscle tissue [3, 5]: 1.33 µg/kg
- quinoxaline-2-carboxylic acid content of the muscle tissue ([3]; one treatment 40 mg/kg, 1st day, total): 3.33 µg/kg
- quinoxaline-2-carboxylic acid content of the kidney [3, 20]: 10.00 µg/kg
- quinoxaline-2-carboxylic acid content of the liver [3, 20]: 12.00 µg/kg
- quinoxaline-2-carboxylic acid content of the muscle tissue [3, 7]: .0.
- quinoxaline-2-carboxylic acid content of the muscle tissue [3, 8]: .0.
- quinoxaline-2-carboxylic acid content of the muscle tissue ([3]; one treatment 40 mg/kg, 5th day, total): .0.
- quinoxaline-2-carboxylic acid content of the kidney [3, 21]: .0.
- quinoxaline-2-carboxylic acid content of the liver [3, 21]: 7.33 µg/kg
- quinoxaline-2-carboxylic acid content of the muscle tissue [3, 10]: .0.
- quinoxaline-2-carboxylic acid content of the muscle tissue [3, 11]: .0.
- quinoxaline-2-carboxylic acid content of the muscle tissue ([3]; one treatment 40 mg/kg, 15th day, total): .0.
- amount of quinoxaline-2-carboxylic acid [3, 4]: 4 µg/kg and 6 µg/kg
- amount of quinoxaline-2-carboxylic acid [3, 5]: 4 µg/kg
- amount of quinoxaline-2-carboxylic acid ([3]; one treatment 40 mg/kg, 1st day, ham, symbol): .0.
- amount of quinoxaline-2-carboxylic acid ([3]; one treatment 40 mg/kg, 1st day, kidney): 38 µg/kg and 30 µg/kg and 24 µg/kg
- amount of quinoxaline-2-carboxylic acid [3, 6]: 58 µg/kg and 64 µg/kg and 72 µg/kg
- amount of quinoxaline-2-carboxylic acid [3, 7]: .0.
- amount of quinoxaline-2-carboxylic acid [3, 8]: .0.
- amount of quinoxaline-2-carboxylic acid ([3]; one treatment 40 mg/kg, 5th day, kidney): 10 µg/kg and 8 µg/kg and 12 µg/kg
- amount of quinoxaline-2-carboxylic acid [3, 9]: 10 µg/kg and 12 µg/kg and 14 µg/kg
- amount of quinoxaline-2-carboxylic acid [3, 10]: .0.
- amount of quinoxaline-2-carboxylic acid [3, 11]: .0.
- amount of quinoxaline-2-carboxylic acid ([3]; one treatment 40 mg/kg, 15th day, kidney): .0.
- amount of quinoxaline-2-carboxylic acid [3, 12]: 8 µg/kg and 6 µg/kg
- metabolite residue in liver ([3]; single 40 mg/kg dose, liver, 15th day, 40 mg/kg): can be detected even on the 15th day; also recorded: could be still detected on the 15th day
- amount of quinoxaline-2-carboxylic acid in liver, decrease ([3]; single 40 mg/kg dose, liver, each measuring point): significant decrease in the amount of quinoxaline-2-carboxylic acid at each measuring point
- residue in the kidney vs. control ([3]; single dose, kidney, 1st and 5th days): essentially identical with the values obtained in the control group
- residue in the kidney ([3]; single dose, kidney, 15th day): no reside can be detected
- metabolite residue in liver, time of detection ([3]; three subsequent treatments, liver): a metabolite residue can be identified on the 5th day only
- metabolite residue in liver vs. control and single dose ([3]; three subsequent treatments, liver, 5th day): substantially lower amount than in the control animals or in the group treated with a single dose of flumecinol
- quinoxaline-2-carboxylic acid content of the kidney [3, 22]: .0.
- quinoxaline-2-carboxylic acid content of the liver [3, 22]: 6.00 µg/kg
- quinoxaline-2-carboxylic acid content of the muscle tissue [3, 13]: .0.
- quinoxaline-2-carboxylic acid content of the muscle tissue [3, 14]: .0.
- quinoxaline-2-carboxylic acid content of the muscle tissue ([3]; three treatments 40 mg/kg, 5th day, total): .0.
- quinoxaline-2-carboxylic acid content of the kidney [3, 23]: .0.
- quinoxaline-2-carboxylic acid content of the liver [3, 23]: .0.
- quinoxaline-2-carboxylic acid content of the muscle tissue [3, 16]: .0.
- quinoxaline-2-carboxylic acid content of the muscle tissue [3, 17]: .0.
- quinoxaline-2-carboxylic acid content of the muscle tissue ([3]; three treatments 40 mg/kg, 15th day, total): .0.
- amount of quinoxaline-2-carboxylic acid [3, 13]: .0.
- amount of quinoxaline-2-carboxylic acid [3, 14]: .0.
- amount of quinoxaline-2-carboxylic acid ([3]; three treatments 40 mg/kg, 5th day, kidney): .0.
- amount of quinoxaline-2-carboxylic acid [3, 15]: 4 µg/kg and 6 µg/kg and 8 µg/kg
- amount of quinoxaline-2-carboxylic acid [3, 16]: .0.
- amount of quinoxaline-2-carboxylic acid [3, 17]: .0.
- amount of quinoxaline-2-carboxylic acid ([3]; three treatments 40 mg/kg, 15th day, kidney): .0.
- amount of quinoxaline-2-carboxylic acid [3, 18]: .0.
